Experiments:
[1] = biological target: T1, wild-type ALK2 (aa172-499) (Homo sapiens (Human), UniProt Q04771); experiment: ADPGlo biochemical autophosphorylation assay, ALK2; conditions: 15 uM ATP
ALK3 (aa198-525) = ALK3 (aa198-525) (Homo sapiens (Human), UniProt P36894); experiment: ADPGlo biochemical autophosphorylation assay, ALK3; conditions: 15 uM ATP
ALK5 (aa162-503) = ALK5 (aa162-503) (Homo sapiens (Human), UniProt P36897); experiment: Caliper biochemical peptide phosphorylation assay, ALK5; conditions: 15 uM ATP
Excerpt: For all biochemical assays, human recombinant proteins were expressed in and purified from baculo virus transfected insect cells. The constructs comprised the GS-domain and kinase domain of wild-type ALK2 (aa172-499), ALK2 FOP mutant (aa172-499 R206H), ALK3 (aa198-525), ALK5 (aa162-503) and ALK6 (aa168-495).
A kinase selectivity panel which measures substrate peptide phosphorylation was set-up for wild-type ALK2 (aa172-499), ALK2 FOP mutant (aa172-499 R206H), ALK1 (aa166-493), ALK5 (aa162-503) and ALK6 (aa168-495). The technology used for the described assay is based on the separation and quantification of substrate and product in an electrical field. In the course of the kinase reaction the peptide substrate is phosphorylated by a kinase. […] Due to this difference in charge the phosphorylated und unphosphorylated peptides migrate with different velocities in an electrical field.
In the applied method, this separation takes place inside a chip that contains a complex capillary system for simultaneous analysis of 12 samples (“LabChip EZ Reader 12-sipper chip”, Caliper Technologies Corp., Mountain View, USA). In order to allow the detection and quantification of the peptides in the capillary system, the peptides carry a fluorescent label (fluorescein). With this label the peptides can be quantified by fluorescence intensity through the instruments laser and detection system (LC3000, Caliper Life Sciences).
The assays were performed in 384-well, low volume microtiter assay plates in a final reaction volume of 9 ul. Dose-response curves were generated by incubating 10 nM of each kinase together with 2 uM of the fluorescently labeled substrate peptide 5-Fluo-Ahx-[…]-T-[…]-amid (10 mM stock solution in DMSO) in 50 mM Hepes pH 7.5, 0.02% Tween 20, 0.02% BSA, 1 mM DTT, 10 uM Na3VO4, 10 mM ß-Glycerolphosphate, 1 mM MgCl2, 12 mM MnCl2 (ALK1 and ALK6 7 mM) and 15 uM ATP for 60 min at 30° C. in the presence or absence of compound diluted in DMSO.
Kinase reactions were terminated by adding 15 ul STOP buffer (100 mM HEPES pH 7.5, 5% DMSO, 0.1% Caliper coating reagent, 10 mM EDTA, and 0.015% Brij35.
Plates with terminated kinase reactions were transferred to the Caliper LC3000 workstation (Caliper Technologies Corp., Mountain View, USA) for reading. The relative amount of phosphorylated peptide r, was calculated using the heights of the substrate peak, s, and the product peak, p:r=p/(p+s).
IC50 values for a given antagonist correspond to the compound concentration needed to inhibit half of the maximum signal of the kinase reaction.

ALK1 (aa166-493) = ALK1 (aa166-493) (Homo sapiens (Human), UniProt P37023); experiment: Caliper biochemical peptide phosphorylation assay, ALK1; conditions: 15 uM ATP
[2] = test system: HuH7 cells, BMP response element (BRE) luciferase reporter, BMP6 stimulated; experiment: BMP signaling reporter gene assay; assay type: cell-based; conditions: Homo sapiens, Huh-7; BMP6 100 ng/ml; read-out: MSD HuH7 cell BMP reporter IC50
[3] = biological target: T1, wild-type ALK2 (aa172-499); experiment: Caliper biochemical peptide phosphorylation assay, ALK2; conditions: Caliper peptide phosphorylation, 15 uM ATP; read-out: ALK2 IC50
[4] = biological target: ALK2 FOP mutant (aa172-499 R206H) (Homo sapiens (Human), UniProt Q04771, R206H); experiment: Caliper biochemical peptide phosphorylation assay, ALK2 FOP; conditions: Caliper peptide phosphorylation, R206H, 15 uM ATP; read-out: ALK2 FOP EPK IC50
ALK6 (aa168-495) = ALK6 (aa168-495) (Homo sapiens (Human), UniProt O00238); experiment: Caliper biochemical peptide phosphorylation assay, ALK6; conditions: 15 uM ATP
Sequence of ALK6 (aa168-495) (O00238 168-495): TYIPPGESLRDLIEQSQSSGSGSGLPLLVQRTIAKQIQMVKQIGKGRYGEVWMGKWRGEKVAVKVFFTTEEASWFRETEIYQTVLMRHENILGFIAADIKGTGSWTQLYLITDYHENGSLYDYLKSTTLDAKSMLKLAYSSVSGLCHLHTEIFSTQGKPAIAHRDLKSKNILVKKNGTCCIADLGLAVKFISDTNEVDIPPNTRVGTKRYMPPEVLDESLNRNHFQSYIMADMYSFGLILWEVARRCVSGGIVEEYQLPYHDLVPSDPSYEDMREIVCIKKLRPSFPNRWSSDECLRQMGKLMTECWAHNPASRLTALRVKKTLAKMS

Sequence of ALK2 FOP mutant (aa172-499 R206H) (Q04771 172-499 R206H): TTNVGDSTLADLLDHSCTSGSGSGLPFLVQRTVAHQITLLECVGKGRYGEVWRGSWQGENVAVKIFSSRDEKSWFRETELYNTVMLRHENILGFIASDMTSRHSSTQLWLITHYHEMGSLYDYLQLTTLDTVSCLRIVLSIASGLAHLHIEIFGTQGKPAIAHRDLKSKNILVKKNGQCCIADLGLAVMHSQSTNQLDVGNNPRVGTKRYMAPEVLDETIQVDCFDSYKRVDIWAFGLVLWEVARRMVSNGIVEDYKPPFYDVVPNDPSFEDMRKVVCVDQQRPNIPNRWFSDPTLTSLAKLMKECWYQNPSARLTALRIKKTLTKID
Sequence of ALK3 (aa198-525) (P36894 198-525): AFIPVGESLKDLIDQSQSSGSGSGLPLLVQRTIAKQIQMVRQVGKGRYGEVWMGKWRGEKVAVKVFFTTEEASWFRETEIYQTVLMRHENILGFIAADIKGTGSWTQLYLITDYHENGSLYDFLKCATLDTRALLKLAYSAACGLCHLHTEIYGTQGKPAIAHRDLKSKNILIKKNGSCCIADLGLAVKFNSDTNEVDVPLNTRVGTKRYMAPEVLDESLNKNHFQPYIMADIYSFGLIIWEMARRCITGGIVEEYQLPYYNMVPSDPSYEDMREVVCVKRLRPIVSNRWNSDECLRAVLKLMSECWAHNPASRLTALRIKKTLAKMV
Sequence of ALK1 (aa166-493) (P37023 166-493): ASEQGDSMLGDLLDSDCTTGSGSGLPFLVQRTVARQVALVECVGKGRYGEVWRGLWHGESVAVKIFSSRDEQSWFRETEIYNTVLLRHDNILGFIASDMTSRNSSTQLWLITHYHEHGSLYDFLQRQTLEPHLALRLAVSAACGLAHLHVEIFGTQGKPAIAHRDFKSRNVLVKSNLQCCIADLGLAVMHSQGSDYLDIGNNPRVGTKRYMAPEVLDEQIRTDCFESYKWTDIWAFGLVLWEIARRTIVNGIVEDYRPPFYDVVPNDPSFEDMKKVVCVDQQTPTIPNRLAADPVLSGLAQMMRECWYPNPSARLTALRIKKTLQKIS
Sequence of ALK5 (aa162-503) (P36897 162-503): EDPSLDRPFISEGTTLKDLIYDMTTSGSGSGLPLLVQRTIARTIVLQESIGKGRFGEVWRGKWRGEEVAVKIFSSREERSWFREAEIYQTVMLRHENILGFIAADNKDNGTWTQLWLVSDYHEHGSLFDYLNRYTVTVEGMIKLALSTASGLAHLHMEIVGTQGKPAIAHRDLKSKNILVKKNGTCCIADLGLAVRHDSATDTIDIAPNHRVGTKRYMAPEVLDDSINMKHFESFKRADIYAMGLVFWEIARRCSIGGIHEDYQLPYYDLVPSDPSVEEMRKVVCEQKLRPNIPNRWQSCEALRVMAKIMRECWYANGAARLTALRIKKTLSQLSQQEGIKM
T1 sequence (Q04771 172-499): as the sequence (Q04771 172-499 R206H) above, with H35R counted along it

IC50 (ALK3 (aa198-525))	IC50 (ALK1 (aa166-493))	IC50 (ALK6 (aa168-495))	SMILES	IC50 [1]	IC50 (ALK5 (aa162-503))	IC50 [2]	IC50 [3]	IC50 [4]
490 nM	540 nM	1000 nM	CCCN1C(=O)Cc2cc(-c3cncc(-c4ccc(=O)n(C(C)C)c4)c3)ccc21 [Example 25, 5-(1′-Isopropyl-6′-oxo-1′,6′-dihydro-[3,3′-bipyridin]-5-yl)-1-propylindolin-2-one]	100 nM	1500 nM	90 nM	80 nM	70 nM
520 nM	410 nM	940 nM	COc1cc(-c2cncc(-c3ccc4c(c3)CC(=O)N4C)c2)cn(C(C)C)c1=O [Example 2, 5-(1′-Isopropyl-5′-methoxy-6′-oxo-1′,6′-dihydro-[3,3′-bipyridin]-5-yl)-1-methylindolin-2-one]	87 nM	610 nM	50 nM	80 nM	60 nM
283 nM	210 nM	1000 nM	CC(C)n1cc(-c2cncc(-c3ccc4c(c3)CS(=O)(=O)N4C)c2)ccc1=O [Example 48, 1-isopropyl-5′-(1-methyl-2,2-dioxido-1,3-dihydrobenzo[c]isothiazol-5-yl)-[3,3′-bipyridin]-6(1H)-one]	71 nM	2400 nM	83 nM	60 nM	60 nM
670 nM	570 nM	1100 nM	CCN1c2ccc(-c3cncc(-c4ccc(=O)n(C(C)C)c4)c3)cc2CS1(=O)=O [Example 49, 5′-(1-ethyl-2,2-dioxido-1,3-dihydrobenzo[c]isothiazol-5-yl)-1-isopropyl-[3,3′-bipyridin]-6(1H)-one]	130 nM	2900 nM	–	140 nM	130 nM
1100 nM	890 nM	1250 nM	CC(C)n1cc(-c2cncc(-c3ccc4c(c3)CC(=O)N4CCO)c2)ccc1=O [Example 45, 1-(2-hydroxyethyl)-5-(1′-isopropyl-6′-oxo-1′,6′-dihydro-[3,3′-bipyridin]-5-yl)indolin-2-one]	160 nM	5000 nM	210 nM	120 nM	100 nM
2400 nM	1500 nM	5300 nM	CN1C(=O)Cc2cc(-c3cncc(-c4ccc(=O)n(C5CCCC5)c4)c3)ccc21 [Example 8, 5-(1′-cyclopentyl-6′-oxo-1′,6′-dihydro-[3,3′-bipyridin]-5-yl)-1-methylindolin-2-one]	200 nM	9600 nM	150 nM	170 nM	120 nM
2500 nM	1700 nM	5400 nM	CC(C)n1cc(-c2cncc(-c3cnc4c(c3)CCC(=O)N4C)c2)ccc1=O [Example 37, 6-(1′-Isopropyl-6′-oxo-1′,6′-dihydro-[3,3′-bipyridin]-5-yl)-1-methyl-3,4-dihydro-1,8-naphthyridin-2(1H)-one]	290 nM	> 10000 nM	300 nM	240 nM	240 nM
300 nM	420 nM	800 nM	CC(C)CN1C(=O)Cc2cc(-c3cncc(-c4ccc(=O)n(C(C)C)c4)c3)ccc21 [Example 24, 1-Isobutyl-5-(1′-isopropyl-6′-oxo-1′,6′-dihydro-[3,3′-bipyridin]-5-yl)indolin-2-one]	67 nM	1900 nM	60 nM	70 nM	60 nM
880 nM	780 nM	1500 nM	CC(C)n1cc(-c2cncc(-c3ccc4c(c3)CS(=O)(=O)N4CC3CCC3)c2)ccc1=O [Example 51, 5′-(1-(cyclobutylmethyl)-2,2-dioxido-1,3-dihydrobenzo[c]isothiazol-5-yl)-1-isopropyl-[3,3′-bipyridin]-6(1H)-one]	160 nM	2700 nM	–	160 nM	150 nM
–	–	–	Cc1cc(-c2cncc(-c3ccc4c(c3)CC(=O)N4C)c2)cn(C(C)C)c1=O [Example 3, 5-(5-(1-Isopropyl-5-methyl-6-oxo-1,6-dihydropyridin-3-yl)pyridin-3-yl)-1-methylindolin-2-one]	97 nM	660 nM	50 nM	90 nM	70 nM

SMILES	IC50 (ALK3 (aa198-525))	IC50 (ALK1 (aa166-493))	IC50 (ALK6 (aa168-495))	IC50 [1]	IC50 (ALK5 (aa162-503))	IC50 [2]	IC50 [3]	IC50 [4]
CC(C)Cn1cc(-c2cncc(-c3ccc4c(c3)CC(=O)N4C)c2)ccc1=O [Example 14, 5-(1′-isobutyl-6′-oxo-1′,6′-dihydro-[3,3′-bipyridin]-5-yl)-1-methylindolin-2-one]	–	4600 nM	–	740 nM	9100 nM	680 nM	480 nM	510 nM
CC(C)n1cc(-c2cncc(-c3cc4c(cc3F)N(C)C(=O)C4)c2)ccc1=O [Example 31]	–	770 nM	–	120 nM	5300 nM	130 nM	100 nM	90 nM
Cc1cc(-c2cncc(-c3ccc(=O)n(C(C)C)c3)c2)cc2c1N(C)C(=O)C2 [Example 35, 5-(1′-isopropyl-6′-oxo-1′,6′-dihydro-[3,3′-bipyridin]-5-yl)-1,7-dimethylindolin-2-one]	–	630 nM	–	110 nM	5700 nM	140 nM	100 nM	91 nM
CN1C(=O)Cc2cc(-c3cncc(-c4ccc(=O)n(C5CC5)c4)c3)ccc21 [Example 10, 5-(1′-cyclopropyl-6′-oxo-1′,6′-dihydro-[3,3′-bipyridin]-5-yl)-1-methylindolin-2-one]	–	2900 nM	–	710 nM	> 10000 nM	730 nM	410 nM	390 nM
CC1C(=O)Nc2cc(-c3cncc(-c4ccc(=O)n(C(C)C)c4)c3)ccc21 (stereo not drawn) [Example 33, 6-(1′-isopropyl-6′-oxo-1′,6′-dihydro-[3,3′-bipyridin]-5-yl)-3-methylindolin-2-one]	–	760 nM	–	180 nM	2700 nM	330 nM	170 nM	150 nM
CCc1cc(-c2cncc(-c3ccc4c(c3)CC(=O)N4C)c2)cn(C(C)C)c1=O [Example 5, 5-(5′-Ethyl-1′-isopropyl-6′-oxo-1′,6′-dihydro-[3,3′-bipyridin]-5-yl)-1-methylindolin-2-one]	–	900 nM	–	140 nM	720 nM	60 nM	160 nM	130 nM
CC(C)n1cc(-c2cncc(-c3ccc4c(c3)CC(=O)N4)c2)ccc1=O [Example 34, 5-(5-(1-Isopropyl-6-oxo-1,6-dihydropyridin-3-yl)pyridin-3-yl)indolin-2-one]	–	1100 nM	–	300 nM	3400 nM	190 nM	180 nM	170 nM
CC(C)n1cc(-c2cncc(-c3ccc4c(c3)CCCC(=O)N4C)c2)ccc1=O [Example 39, 7-(1′-isopropyl-6′-oxo-1′,6′-dihydro-[3,3′-bipyridin]-5-yl)-1-methyl-4,5-dihydro-1H-benzo[b]azepin-2(3H)-one]	–	350 nM	–	89 nM	1400 nM	110 nM	70 nM	60 nM
